Assay results taken from the NIST ThermoML archive (doi:10.1016/j.fluid.2018.08.016).
Numbers after ± are expanded uncertainties.

Assays:
[1] = for thermal conductivity: 101.33 kPa, Modified transient plane source method; for Normal melting temperature: Crystal 1, DTA; for Triple point temperature: DSC
[2] = Molar enthalpy of transition or fusion; details: DSC

| SMILES | thermal conductivity ([1]; 297.6 K, Crystal 2) [W/m/K] | thermal conductivity ([1]; 302.4 K, Crystal 2) [W/m/K] | thermal conductivity ([1]; 333 K, Liquid) [W/m/K] | thermal conductivity ([1]; 343.1 K, Liquid) [W/m/K] | thermal conductivity ([1]; 348 K, Liquid) [W/m/K] | Normal melting temperature [1] [°C] | Triple point temperature ([1]; Crystal 2) [K] | Molar enthalpy of transition or fusion ([2]; Crystal 1) [kcal/mol] | Molar enthalpy of transition or fusion ([2]; Crystal 2) [kcal/mol] | thermal conductivity ([1]; 297.7 K, Crystal 2) [W/m/K] | thermal conductivity ([1]; 302.3 K, Crystal 2) [W/m/K] | thermal conductivity ([1]; 337.7 K, Liquid) [W/m/K] | thermal conductivity ([1]; 353 K, Liquid) [W/m/K] | other results |
| --- | --- | --- | --- | --- | --- | --- | --- | --- | --- | --- | --- | --- | --- | --- |
| CCCCCCCCCCCCCCCCCCCCCCCCCC [hexacosane] | 0.499 ± 0.031 | 0.524 ± 0.031 | 0.151 ± 0.005 | 0.149 ± 0.006 | 0.148 ± 0.005 | 55.7 ± 0.5 | 325.7 ± 0.8 | 13.2 ± 0.837 | 7.37 ± 0.287 | – | – | – | – | thermal conductivity ([1]; 307.8 K, Crystal 2): 0.484 ± 0.032 W/m/K; thermal conductivity ([1]; 312.7 K, Crystal 2): 0.513 ± 0.032 W/m/K; thermal conductivity ([1]; 318.5 K, Crystal 2): 0.574 ± 0.036 W/m/K; thermal conductivity ([1]; 337.8 K, Liquid): 0.15 ± 0.005 W/m/K; thermal conductivity ([1]; 353.1 K, Liquid): 0.147 ± 0.005 W/m/K |
| CCCCCCCCCCCCCCCCCCCCCCCCCCCCCCCC [dotriacontane] | – | – | – | – | 0.152 ± 0.006 | 69 ± 0.5 | 338.1 ± 0.8 | 18 ± 0.693 | 9.3 ± 0.359 | 0.574 ± 0.034 | 0.574 ± 0.036 | – | – | thermal conductivity ([1]; 307.5 K, Crystal 2): 0.585 ± 0.036 W/m/K; thermal conductivity ([1]; 312.8 K, Crystal 2): 0.607 ± 0.038 W/m/K; thermal conductivity ([1]; 318 K, Crystal 2): 0.585 ± 0.037 W/m/K; thermal conductivity ([1]; 323.1 K, Crystal 2): 0.561 ± 0.035 W/m/K; thermal conductivity ([1]; 328 K, Crystal 2): 0.588 ± 0.036 W/m/K; thermal conductivity ([1]; 332.6 K, Crystal 2): 0.621 ± 0.038 W/m/K; thermal conductivity ([1]; 343 K, Liquid): 0.153 ± 0.006 W/m/K; thermal conductivity ([1]; 353.1 K, Liquid): 0.149 ± 0.005 W/m/K |
| CCCCCCCCCCCCCCCCCCCCCC [docosane] | 0.624 ± 0.039 | 0.668 ± 0.041 | 0.146 ± 0.005 | – | – | 43.5 ± 0.5 | 315.6 ± 0.8 | 9.92 ± 0.359 | 6.92 ± 0.263 | – | – | 0.145 ± 0.005 | 0.142 ± 0.005 | thermal conductivity ([1]; 307.9 K, Crystal 2): 0.637 ± 0.04 W/m/K; thermal conductivity ([1]; 318.1 K, Liquid): 0.151 ± 0.005 W/m/K; thermal conductivity ([1]; 323 K, Liquid): 0.15 ± 0.005 W/m/K; thermal conductivity ([1]; 328.1 K, Liquid): 0.148 ± 0.005 W/m/K; thermal conductivity ([1]; 343 K, Liquid): 0.144 ± 0.005 W/m/K; thermal conductivity ([1]; 347.9 K, Liquid): 0.143 ± 0.005 W/m/K |
| CCCCCCCCCCCCCCCCCCCCCCCCCCCCCC [triacontane] | – | – | – | 0.153 ± 0.005 | 0.152 ± 0.005 | 64.0 ± 1.5 | 334.2 ± 0.8 | 16.7 ± 0.598 | 9.03 ± 0.335 | 0.616 ± 0.038 | 0.603 ± 0.036 | – | – | thermal conductivity ([1]; 307.8 K, Crystal 2): 0.556 ± 0.034 W/m/K; thermal conductivity ([1]; 312.6 K, Crystal 2): 0.612 ± 0.037 W/m/K; thermal conductivity ([1]; 318.5 K, Crystal 2): 0.559 ± 0.035 W/m/K; thermal conductivity ([1]; 323.3 K, Crystal 2): 0.514 ± 0.033 W/m/K; thermal conductivity ([1]; 328 K, Crystal 2): 0.536 ± 0.034 W/m/K; thermal conductivity ([1]; 353.5 K, Liquid): 0.151 ± 0.005 W/m/K |
| CCCCCCCCCCCCCCCCCCCCCCCCCCCC [octacosane] | – | 0.489 ± 0.03 | – | 0.151 ± 0.005 | 0.149 ± 0.005 | 60.2 ± 1 | 330.4 ± 0.8 | 15.1 ± 0.55 | 8.39 ± 0.311 | 0.514 ± 0.031 | – | 0.152 ± 0.005 | 0.149 ± 0.005 | thermal conductivity ([1]; 308 K, Crystal 2): 0.471 ± 0.029 W/m/K; thermal conductivity ([1]; 312.7 K, Crystal 2): 0.469 ± 0.028 W/m/K; thermal conductivity ([1]; 318.6 K, Crystal 2): 0.473 ± 0.031 W/m/K; thermal conductivity ([1]; 323.4 K, Crystal 2): 0.505 ± 0.032 W/m/K |
| CCCCCCCCCCCCCCCCCCCCCCCC [tetracosane] | 0.594 ± 0.036 | – | 0.149 ± 0.005 | 0.146 ± 0.005 | 0.146 ± 0.005 | 50.0 ± 0.5 | 320.8 ± 0.8 | 12.2 ± 1.27 | 7.41 ± 0.43 | – | 0.545 ± 0.033 | – | 0.145 ± 0.006 | thermal conductivity ([1]; 307.7 K, Crystal 2): 0.545 ± 0.033 W/m/K; thermal conductivity ([1]; 312.9 K, Crystal 2): 0.603 ± 0.036 W/m/K; thermal conductivity ([1]; 323.1 K, Liquid): 0.152 ± 0.005 W/m/K; thermal conductivity ([1]; 328 K, Liquid): 0.151 ± 0.005 W/m/K; thermal conductivity ([1]; 337.6 K, Liquid): 0.148 ± 0.005 W/m/K |
| CCCCCCCCCCCC [dodecane] | – | – | – | – | – | – | – | – | – | – | – | 0.13 ± 0.005 | – | thermal conductivity ([1]; 318.2 K, Liquid): 0.135 ± 0.004 W/m/K; thermal conductivity ([1]; 323.2 K, Liquid): 0.134 ± 0.005 W/m/K; thermal conductivity ([1]; 328.1 K, Liquid): 0.133 ± 0.005 W/m/K; thermal conductivity ([1]; 333.1 K, Liquid): 0.131 ± 0.005 W/m/K; thermal conductivity ([1]; 343.2 K, Liquid): 0.128 ± 0.005 W/m/K; thermal conductivity ([1]; 347.9 K, Liquid): 0.127 ± 0.005 W/m/K; thermal conductivity ([1]; 352.8 K, Liquid): 0.127 ± 0.005 W/m/K |
